In brackets after ≈: the same amount, converted by molar mass.
Experiments:
Assay in all cases: in vitro antibacterial test (M.I.C.)
Type in all cases: cell-based
S. albus = settings: Staphylococcus albus
Excerpt: (§1) Die folgende Tabelle gibt die Resultate von in vitro Versuchen unter Verwendung von (1R)-1-(L-Pyroglutamyl-L-norvalyl-L-norvalylamirio)-ethylphosphonsäure gegen einige repräsentative pathogene Mikroorganismen wieder.

Klebsiella spp. = test system: Klebsiella spp.
Excerpt: as §1

H. influenzae = settings: Haemophilus influenzae
Excerpt: as §1

S. pyogenes = settings: Streptococcus pyogenes
Excerpt: as §1

Shigella spp. = test system: Shigella spp.
Excerpt: as §1

S. pneumoniae = settings: Streptococcus pneumoniae
Excerpt: as §1

E. coli = settings: Escherichia coli
Excerpt: as §1

S. faecalis = settings: Enterococcus faecalis
Excerpt: as §1

S. marcescens = settings: Serratia marcescens
Excerpt: as §1

Salmonella spp. = test system: Salmonella spp.
Excerpt: as §1

For `CCC[C@H](NC(=O)[C@@H]1CCC(=O)N1)C(=O)N[C@@H](CCC)C(=O)N[C@@H](C)P(=O)(O)O` [Beispiel 1, (1R)-1-(L-Pyroglutamyl-L-norvalyl-L-norvalylamino)-ethylphosphonsäure], the MIC (S. albus) was 16 µg/mL (≈ 36.8 µM), the MIC (Klebsiella spp.) was 16 µg/mL (≈ 36.8 µM) and the MIC (H. influenzae) was 0.2 µg/mL (≈ 0.46 µM). It also gave an MIC (S. pyogenes) of 16 µg/mL (≈ 36.8 µM), an MIC (Shigella spp.) of 1.1 µg/mL (≈ 2.53 µM) and an MIC (S. pneumoniae) of 2.4 µg/mL (≈ 5.52 µM). It also gave an MIC (E. coli) of 0.25 µg/mL (≈ 0.575 µM), an MIC (S. faecalis) of 0.05 µg/mL (≈ 0.115 µM) and an MIC (S. marcescens) of 30 µg/mL (≈ 69.1 µM). It also gave an MIC (Salmonella spp.) of 20 µg/mL (≈ 46 µM).
